Values after ≈ are worked out from the molar mass of the structure shown.
Legend:
NR1/NR2C = NR1/NR2C (Rattus norvegicus, UniProt P35439+Q00961); experiment: Two-electrode voltage-clamp, recombinant NR1/NR2C in Xenopus oocytes; assay type: cell-based; settings: for response at saturating concentration, NR2C (fitted minimum): fit with variable minimum
NR1/NR2D = NR1/NR2D (Rattus norvegicus, UniProt P35439+Q62645); experiment: Two-electrode voltage-clamp, recombinant NR1/NR2D in Xenopus oocytes; assay type: cell-based; settings: for GluR1/NR2D: (IC50 GluR1)/(IC50 NR2D) / NR2A/NR2D: (IC50 NR2A)/(IC50 NR2D): selectivity ratio; for response at saturating concentration, NR2D (fitted minimum): fit with variable minimum
GluR1 = GluR1 (Rattus norvegicus, UniProt P19490); experiment: Two-electrode voltage-clamp, recombinant GluR1; assay type: cell-based
GluR6 = GluR6 (Rattus norvegicus, UniProt P42260); experiment: Two-electrode voltage-clamp, recombinant GluR6; assay type: cell-based; settings: 30 μM compound
NR1/NR2A = NR1/NR2A (Rattus norvegicus, UniProt P35439+Q00959); experiment: Two-electrode voltage-clamp, recombinant NR1/NR2A in Xenopus oocytes; assay type: cell-based; settings: for response at saturating concentration, NR2A (fitted minimum): fit with variable minimum, predicted
NR1/NR2B = NR1/NR2B (Rattus norvegicus, UniProt P35439+Q00960); experiment: Two-electrode voltage-clamp, recombinant NR1/NR2B in Xenopus oocytes; assay type: cell-based; settings: for response at saturating concentration, NR2B (fitted minimum): fit with variable minimum, predicted
[1] = Maximum solubility by nephelometry; assay type: physicochemical; settings: oocyte recording solution with 1% DMSO, aqueous buffer, kinetic from dmso stock

Sequence of NR1/NR2D (Q62645 28-1323, other chains not shown): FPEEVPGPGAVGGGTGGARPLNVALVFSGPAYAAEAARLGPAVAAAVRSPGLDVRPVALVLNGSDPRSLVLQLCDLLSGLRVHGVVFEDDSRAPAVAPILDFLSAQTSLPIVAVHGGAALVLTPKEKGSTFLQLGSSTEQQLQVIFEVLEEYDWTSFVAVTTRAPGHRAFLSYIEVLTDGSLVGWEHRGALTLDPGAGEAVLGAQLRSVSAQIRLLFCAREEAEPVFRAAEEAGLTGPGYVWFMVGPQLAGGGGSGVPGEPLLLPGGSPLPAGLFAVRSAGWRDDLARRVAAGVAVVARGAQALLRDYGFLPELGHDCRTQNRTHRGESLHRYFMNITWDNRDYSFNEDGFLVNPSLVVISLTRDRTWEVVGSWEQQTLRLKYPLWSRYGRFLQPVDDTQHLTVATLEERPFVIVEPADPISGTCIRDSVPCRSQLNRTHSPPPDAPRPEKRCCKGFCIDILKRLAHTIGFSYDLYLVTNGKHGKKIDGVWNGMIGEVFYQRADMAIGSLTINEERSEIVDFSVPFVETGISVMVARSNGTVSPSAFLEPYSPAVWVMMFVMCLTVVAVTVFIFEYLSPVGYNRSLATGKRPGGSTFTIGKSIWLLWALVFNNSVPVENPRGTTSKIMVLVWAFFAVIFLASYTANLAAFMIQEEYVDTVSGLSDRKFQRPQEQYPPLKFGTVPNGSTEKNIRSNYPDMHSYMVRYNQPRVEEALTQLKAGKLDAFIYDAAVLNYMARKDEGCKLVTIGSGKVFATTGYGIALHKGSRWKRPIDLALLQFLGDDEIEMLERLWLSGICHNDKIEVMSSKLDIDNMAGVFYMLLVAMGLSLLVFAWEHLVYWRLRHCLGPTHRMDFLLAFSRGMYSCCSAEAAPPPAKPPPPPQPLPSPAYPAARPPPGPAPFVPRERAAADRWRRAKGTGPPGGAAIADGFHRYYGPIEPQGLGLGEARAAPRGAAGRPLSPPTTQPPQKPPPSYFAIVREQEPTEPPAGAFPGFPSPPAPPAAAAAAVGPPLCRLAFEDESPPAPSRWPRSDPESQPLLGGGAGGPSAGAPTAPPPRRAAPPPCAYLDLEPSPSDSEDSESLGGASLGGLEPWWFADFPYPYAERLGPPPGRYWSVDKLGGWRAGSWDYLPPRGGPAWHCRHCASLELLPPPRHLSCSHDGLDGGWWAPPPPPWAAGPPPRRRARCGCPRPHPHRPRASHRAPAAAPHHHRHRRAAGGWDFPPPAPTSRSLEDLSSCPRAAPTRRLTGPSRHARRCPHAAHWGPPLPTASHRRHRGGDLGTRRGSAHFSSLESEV
Sequence of NR1/NR2C (Q00961 20-1237, other chains not shown): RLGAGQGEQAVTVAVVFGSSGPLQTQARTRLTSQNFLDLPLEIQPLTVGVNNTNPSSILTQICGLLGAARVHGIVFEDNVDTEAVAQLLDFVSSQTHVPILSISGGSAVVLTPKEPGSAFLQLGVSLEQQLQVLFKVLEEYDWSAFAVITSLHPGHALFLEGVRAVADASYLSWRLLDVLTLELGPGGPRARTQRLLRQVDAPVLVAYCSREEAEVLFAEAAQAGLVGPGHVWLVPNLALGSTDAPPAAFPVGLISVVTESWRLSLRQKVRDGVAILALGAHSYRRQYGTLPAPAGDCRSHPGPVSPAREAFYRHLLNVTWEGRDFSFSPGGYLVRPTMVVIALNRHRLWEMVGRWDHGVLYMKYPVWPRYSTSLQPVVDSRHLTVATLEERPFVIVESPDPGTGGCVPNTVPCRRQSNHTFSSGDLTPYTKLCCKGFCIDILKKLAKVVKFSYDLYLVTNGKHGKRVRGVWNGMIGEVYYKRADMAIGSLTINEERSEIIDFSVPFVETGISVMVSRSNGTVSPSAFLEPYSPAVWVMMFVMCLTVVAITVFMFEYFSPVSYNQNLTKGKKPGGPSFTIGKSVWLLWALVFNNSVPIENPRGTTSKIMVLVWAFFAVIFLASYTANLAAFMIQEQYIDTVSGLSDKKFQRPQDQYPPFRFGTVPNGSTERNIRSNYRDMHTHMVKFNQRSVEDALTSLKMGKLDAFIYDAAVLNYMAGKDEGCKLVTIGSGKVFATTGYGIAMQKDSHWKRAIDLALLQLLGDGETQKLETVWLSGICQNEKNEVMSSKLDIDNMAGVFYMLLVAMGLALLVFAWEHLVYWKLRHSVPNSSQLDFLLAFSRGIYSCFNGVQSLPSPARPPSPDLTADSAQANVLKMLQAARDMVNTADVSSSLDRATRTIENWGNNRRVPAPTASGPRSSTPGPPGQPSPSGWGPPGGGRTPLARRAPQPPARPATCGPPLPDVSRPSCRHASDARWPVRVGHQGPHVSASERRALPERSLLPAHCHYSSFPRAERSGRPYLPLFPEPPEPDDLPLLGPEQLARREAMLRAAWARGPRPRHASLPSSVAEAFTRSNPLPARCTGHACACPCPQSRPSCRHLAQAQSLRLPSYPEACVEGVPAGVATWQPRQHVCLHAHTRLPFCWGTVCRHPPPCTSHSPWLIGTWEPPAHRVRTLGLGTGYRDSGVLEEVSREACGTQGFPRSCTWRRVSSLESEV
Sequence of NR1/NR2B (Q00960 27-1482, other chains not shown): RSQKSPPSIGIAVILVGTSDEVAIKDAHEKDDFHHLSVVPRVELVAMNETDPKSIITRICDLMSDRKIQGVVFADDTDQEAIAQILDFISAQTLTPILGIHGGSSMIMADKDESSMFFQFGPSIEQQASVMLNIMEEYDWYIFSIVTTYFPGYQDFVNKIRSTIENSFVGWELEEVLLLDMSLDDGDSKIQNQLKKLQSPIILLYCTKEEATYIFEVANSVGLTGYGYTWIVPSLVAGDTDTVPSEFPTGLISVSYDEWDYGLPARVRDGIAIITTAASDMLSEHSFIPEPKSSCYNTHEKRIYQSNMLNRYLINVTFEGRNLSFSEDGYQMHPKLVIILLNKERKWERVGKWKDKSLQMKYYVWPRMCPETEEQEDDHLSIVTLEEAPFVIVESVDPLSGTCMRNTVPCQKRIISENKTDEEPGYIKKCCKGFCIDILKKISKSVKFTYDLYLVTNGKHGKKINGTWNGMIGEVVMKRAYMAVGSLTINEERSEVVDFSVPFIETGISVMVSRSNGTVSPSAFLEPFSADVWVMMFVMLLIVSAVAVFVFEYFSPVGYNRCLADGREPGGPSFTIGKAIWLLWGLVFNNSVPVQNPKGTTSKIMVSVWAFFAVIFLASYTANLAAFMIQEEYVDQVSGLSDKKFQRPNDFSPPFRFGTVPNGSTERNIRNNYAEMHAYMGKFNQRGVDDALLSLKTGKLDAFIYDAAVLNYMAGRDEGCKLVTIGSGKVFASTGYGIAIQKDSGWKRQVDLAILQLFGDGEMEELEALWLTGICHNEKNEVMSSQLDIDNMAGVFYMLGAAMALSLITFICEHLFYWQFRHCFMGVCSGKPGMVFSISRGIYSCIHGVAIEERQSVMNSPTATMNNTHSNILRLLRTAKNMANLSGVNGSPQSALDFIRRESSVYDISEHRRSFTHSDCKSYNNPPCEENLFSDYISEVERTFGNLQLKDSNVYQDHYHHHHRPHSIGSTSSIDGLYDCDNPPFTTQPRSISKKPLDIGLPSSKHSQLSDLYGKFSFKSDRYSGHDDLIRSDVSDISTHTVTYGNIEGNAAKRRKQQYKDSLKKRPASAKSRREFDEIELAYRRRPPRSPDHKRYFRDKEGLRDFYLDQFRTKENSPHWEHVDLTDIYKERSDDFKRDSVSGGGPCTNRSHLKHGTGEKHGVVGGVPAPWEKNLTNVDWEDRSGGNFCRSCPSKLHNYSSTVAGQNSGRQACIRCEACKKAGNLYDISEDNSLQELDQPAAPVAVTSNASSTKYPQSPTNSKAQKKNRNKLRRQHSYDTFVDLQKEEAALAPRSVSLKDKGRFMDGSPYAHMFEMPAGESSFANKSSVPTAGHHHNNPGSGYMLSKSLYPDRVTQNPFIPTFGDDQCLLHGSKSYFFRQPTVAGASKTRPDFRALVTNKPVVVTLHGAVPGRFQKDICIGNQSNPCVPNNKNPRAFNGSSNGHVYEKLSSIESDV
Sequence of GluR1 (P19490 19-907): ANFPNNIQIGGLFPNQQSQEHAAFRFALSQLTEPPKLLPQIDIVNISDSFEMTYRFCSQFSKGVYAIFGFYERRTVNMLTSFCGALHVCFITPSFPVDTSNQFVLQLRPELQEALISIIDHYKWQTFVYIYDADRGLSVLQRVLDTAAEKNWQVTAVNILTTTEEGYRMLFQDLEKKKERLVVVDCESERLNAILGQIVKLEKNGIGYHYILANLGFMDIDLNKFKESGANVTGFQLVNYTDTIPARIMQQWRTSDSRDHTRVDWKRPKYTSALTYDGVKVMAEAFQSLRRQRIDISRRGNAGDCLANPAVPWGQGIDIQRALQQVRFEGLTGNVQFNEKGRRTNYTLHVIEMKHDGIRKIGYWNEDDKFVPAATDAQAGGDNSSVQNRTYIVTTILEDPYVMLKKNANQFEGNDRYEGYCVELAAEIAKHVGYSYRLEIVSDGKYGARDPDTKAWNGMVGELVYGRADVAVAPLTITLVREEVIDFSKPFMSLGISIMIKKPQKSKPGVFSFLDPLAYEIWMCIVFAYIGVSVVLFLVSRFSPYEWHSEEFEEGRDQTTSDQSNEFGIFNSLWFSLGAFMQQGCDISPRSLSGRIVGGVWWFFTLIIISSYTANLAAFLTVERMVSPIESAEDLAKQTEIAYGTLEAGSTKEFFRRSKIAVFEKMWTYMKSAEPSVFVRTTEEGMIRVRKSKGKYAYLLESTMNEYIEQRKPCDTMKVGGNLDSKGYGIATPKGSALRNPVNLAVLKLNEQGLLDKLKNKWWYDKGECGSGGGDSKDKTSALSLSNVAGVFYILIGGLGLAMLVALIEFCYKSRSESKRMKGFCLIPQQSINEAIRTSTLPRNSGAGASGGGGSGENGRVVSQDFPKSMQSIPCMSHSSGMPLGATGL

Compound: O=C(O)c1ccc(-n2c(/C=C/c3cccc([N+](=O)[O-])c3)nc3ccccc3c2=O)cc1 [Compound 2, (E)-4-(2-(3-nitrostyryl)-4-oxoquinazolin-3(4H)-yl)benzoic acid]
- extent of inhibition of NR1/NR2C responses (NR1/NR2C): completely
- mode of inhibition at NR1/NR2C (NR1/NR2C): non-competitive
- voltage dependence of inhibition at NR1/NR2C (NR1/NR2C): voltage-independent
- extent of inhibition of NR1/NR2D responses (NR1/NR2D): completely
- voltage dependence of inhibition at NR1/NR2D (NR1/NR2D; 10 μM compound, -40 mV vs +40 mV): voltage-independent
- mode of inhibition at NR1/NR2D (NR1/NR2D; 30 μM compound, glutamate/glycine raised from 100/30 μM to 1000/300 μM): non-competitive
- fold more potent (lower fitted IC50) at NMDA receptors than AMPA receptors (GluR1): 4-5 fold

Compound: COc1ccccc1-n1c(/C=C/c2ccccc2[N+](=O)[O-])nc2ccccc2c1=O [Compound 3, (E)-3-(2-methoxyphenyl)-2-(2-nitrostyryl)quinazolin-4(3H)-one]
- extent of inhibition of NR1/NR2C responses (NR1/NR2C): completely
- extent of inhibition of NR1/NR2D responses (NR1/NR2D): completely
- fold more potent (lower fitted IC50) at NMDA receptors than AMPA receptors (GluR1): 4-5 fold

Compound: O=C(O)c1ccc(-n2c(/C=C/c3ccccc3)nc3ccccc3c2=O)cc1 [Compound 23]
- IC50 (NR1/NR2C): 39 µM

Compound: COc1ccc(/C=C/c2nc3ccccc3c(=O)n2-c2ccc(C(=O)O)cc2)cc1 [Compound 24]
- IC50 (NR1/NR2C): 42 µM

Compound: COc1cccc(/C=C/c2nc3ccccc3c(=O)n2-c2ccc(C(=O)O)cc2)c1 [Compound 25]
- IC50 (NR1/NR2C): 17 µM

Compound: COc1ccccc1/C=C/c1nc2ccccc2c(=O)n1-c1ccc(C(=O)O)cc1 [Compound 26]
- IC50 (NR1/NR2C): 32 µM

Compound: O=C(O)c1ccc(-n2c(/C=C/c3ccc(C(F)(F)F)cc3)nc3ccccc3c2=O)cc1 [Compound 27]
- IC50 (NR1/NR2C): 23 µM

Compound: O=C(O)c1ccc(-n2c(/C=C/c3cccc(C(F)(F)F)c3)nc3ccccc3c2=O)cc1 [Compound 28]
- IC50 (NR1/NR2C): 8 µM

Compound: O=C(O)c1ccc(-n2c(/C=C/c3ccccc3C(F)(F)F)nc3ccccc3c2=O)cc1 [Compound 29]
- IC50 (NR1/NR2C): 88 µM
- GluR1/NR2D: (IC50 GluR1)/(IC50 NR2D) (NR1/NR2D): >10
- NR2A/NR2D: (IC50 NR2A)/(IC50 NR2D) (NR1/NR2D): >10

Compound: O=C(O)c1ccc(-n2c(/C=C/c3ccc(O)cc3)nc3ccccc3c2=O)cc1 [Compound 30]
- IC50 (NR1/NR2C): 50 µM

Compound: Cc1ccc(/C=C/c2nc3ccccc3c(=O)n2-c2ccc(C(=O)O)cc2)cc1 [Compound 33]
- IC50 (NR1/NR2C): 28 µM
- GluR1/NR2D: (IC50 GluR1)/(IC50 NR2D) (NR1/NR2D): >17

Compound: Cc1cccc(/C=C/c2nc3ccccc3c(=O)n2-c2ccc(C(=O)O)cc2)c1 [Compound 34]
- IC50 (NR1/NR2C): 28 µM
- GluR1/NR2D: (IC50 GluR1)/(IC50 NR2D) (NR1/NR2D): >16

Compound: O=C(O)c1ccc(-n2c(/C=C/c3cccc([N+](=O)[O-])c3)nc3cccc(Cl)c3c2=O)cc1 [Compound 36, (E)-4-(5-chloro-2-(3-nitrostyryl)-4-oxoquinazolin-3(4H)-yl)benzoic acid]
- GluR1/NR2D: (IC50 GluR1)/(IC50 NR2D) (NR1/NR2D): >20
- NR2A/NR2D: (IC50 NR2A)/(IC50 NR2D) (NR1/NR2D): >20

Compound: O=C(O)c1ccc(-n2c(/C=C/c3ccc([N+](=O)[O-])cc3)nc3c(Cl)cc(Cl)cc3c2=O)cc1 [Compound 41, (E)-4-(6,8-dichloro-2-(4-nitrostyryl)-4-oxoquinazolin-3(4H)-yl)benzoic acid]
- GluR1/NR2D: (IC50 GluR1)/(IC50 NR2D) (NR1/NR2D): >50
- NR2A/NR2D: (IC50 NR2A)/(IC50 NR2D) (NR1/NR2D): >50

Compound: O=C(O)c1ccc(-n2c(/C=C/c3cccc([N+](=O)[O-])c3)nc3ccc(F)cc3c2=O)cc1 [Compound 42, (E)-4-(6-fluoro-2-(3-nitrostyryl)-4-oxoquinazolin-3(4H)-yl)benzoic acid]
- IC50 (NR1/NR2C): 14 µM

Compound: COc1ccc2nc(/C=C/c3cccc([N+](=O)[O-])c3)n(-c3ccc(C(=O)O)cc3)c(=O)c2c1 [Compound 46, (E)-4-(6-methoxy-2-(3-nitrostyryl)-4-oxoquinazolin-3(4H)-yl)benzoic acid]
- selectivity for NR2C/D (NR2D) over NR2A/B (NR1/NR2D): > 50 fold
- effect on GluR6 responses (GluR6): No significant effect

Compound: O=C(O)c1ccc(-n2c(/C=C/c3cccc([N+](=O)[O-])c3)nc3ccc(-c4ccccc4)cc3c2=O)cc1 [Compound 49, (E)-4-(2-(3-nitrostyryl)-4-oxo-6-phenylquinazolin-3(4H)-yl)benzoic acid]
- response at saturating concentration, NR2A (fitted minimum) (NR1/NR2A): 68 % of control
- response at saturating concentration, NR2B (fitted minimum) (NR1/NR2B): 51 % of control
- response at saturating concentration, NR2C (fitted minimum) (NR1/NR2C): 22 % of control
- response at saturating concentration, NR2D (fitted minimum) (NR1/NR2D): 14 % of control

Compound: O=C(O)c1ccc(-n2c(/C=C/c3cccc([N+](=O)[O-])c3)nc3cc4ccccc4cc3c2=O)cc1 [Compound 50, (E)-4-(2-(3-nitrostyryl)-4-oxobenzo[g]quinazolin-3(4H)-yl)benzoic acid]
- response at saturating concentration, NR2A (fitted minimum) (NR1/NR2A): 68 % of control
- response at saturating concentration, NR2B (fitted minimum) (NR1/NR2B): 50 % of control
- response at saturating concentration, NR2C (fitted minimum) (NR1/NR2C): 26 % of control
- response at saturating concentration, NR2D (fitted minimum) (NR1/NR2D): 20 % of control

Compound: O=C(O)c1ccc(-n2c(/C=C/c3cccc([N+](=O)[O-])c3)nc3cc4c(cc3c2=O)OCO4)cc1 [Compound 52, (E)-4-(6-(3-nitrostyryl)-8-oxo-[1,3]dioxolo[4,5-g]quinazolin-7(8H)-yl)benzoic acid]
- GluR1/NR2D: (IC50 GluR1)/(IC50 NR2D) (NR1/NR2D): >8

Compound: COc1ccc2nc(/C=C/c3cccc(C(=O)O)c3)n(-c3ccc(C(=O)O)cc3)c(=O)c2c1 [Compound 62, (E)-3-(2-(3-(4-carboxyphenyl)-6-methoxy-4-oxo-3,4-dihydroquinazolin-2-yl)vinyl)benzoic acid]
- GluR1/NR2D: (IC50 GluR1)/(IC50 NR2D) (NR1/NR2D): >2
- NR2A/NR2D: (IC50 NR2A)/(IC50 NR2D) (NR1/NR2D): >2

Compound: COc1ccc2nc(/C=C/c3ccc(OC(C)=O)c(OC(C)=O)c3)n(-c3ccc(C(=O)O)cc3)c(=O)c2c1 [Compound 64, (E)-4-(2-(3,4-diacetoxystyryl)-6-methoxy-4-oxoquinazolin-3(4H)-yl)benzoic acid]
- IC50 (NR1/NR2A): > 300 µM
- IC50 (NR1/NR2B): > 300 µM
- IC50 (NR1/NR2C): 124 µM
- IC50 (NR1/NR2D): 52 µM
- GluR1/NR2D: (IC50 GluR1)/(IC50 NR2D) (NR1/NR2D): >6
- NR2A/NR2D: (IC50 NR2A)/(IC50 NR2D) (NR1/NR2D): >6
- IC50 (GluR1): > 300 µM

Compound: N#Cc1ccc(/C=C/c2nc3ccccc3c(=O)n2-c2ccc(C(=O)O)cc2)cc1 [Compound 66]
- GluR1/NR2D: (IC50 GluR1)/(IC50 NR2D) (NR1/NR2D): >9

Compound: C=CCOc1ccc(/C=C/c2nc3ccccc3c(=O)n2-c2ccc(C(=O)O)cc2)cc1 [Compound 69]
- GluR1/NR2D: (IC50 GluR1)/(IC50 NR2D) (NR1/NR2D): >10
- NR2A/NR2D: (IC50 NR2A)/(IC50 NR2D) (NR1/NR2D): >10

Compound: O=C(O)c1ccc(-n2c(/C=C/c3ccc([N+](=O)[O-])cc3)nc3ccc(I)cc3c2=O)cc1 [Compound 72, (E)-4-(6-iodo-2-(4-nitrostyryl)-4-oxoquinazolin-3(4H)-yl)benzoic acid]
- response at saturating concentration, NR2C (fitted minimum) (NR1/NR2C): 31 % of control
- response at saturating concentration, NR2D (fitted minimum) (NR1/NR2D): 26 % of control
- GluR1/NR2D: (IC50 GluR1)/(IC50 NR2D) (NR1/NR2D): >220
- effect on GluR6 responses (GluR6): No significant effect
- solubility [1]: 10 µM (≈ 5.39 µg/mL)

Compound: O=C(O)c1cccc(-n2c(/C=C/c3ccc([N+](=O)[O-])cc3)nc3ccc(I)cc3c2=O)c1 [Compound 73, (E)-3-(6-iodo-2-(4-nitrostyryl)-4-oxoquinazolin-3(4H)-yl)benzoic acid]
- GluR1/NR2D: (IC50 GluR1)/(IC50 NR2D) (NR1/NR2D): >37
- NR2A/NR2D: (IC50 NR2A)/(IC50 NR2D) (NR1/NR2D): >37

Compound: COc1ccc2nc(/C=C/c3ccc([N+](=O)[O-])cc3)n(-c3ccc(C(=O)O)cc3)c(=O)c2c1 [Compound 75, (E)-4-(6-methoxy-2-(4-nitrostyryl)-4-oxoquinazolin-3(4H)-yl)benzoic acid]
- GluR1/NR2D: (IC50 GluR1)/(IC50 NR2D) (NR1/NR2D): >42

Compound: COc1ccc2nc(/C=C/c3ccc([N+](=O)[O-])cc3)n(-c3cccc(C(=O)O)c3)c(=O)c2c1 [Compound 76, (E)-3-(6-methoxy-2-(4-nitrostyryl)-4-oxoquinazolin-3(4H)-yl)benzoic acid]
- GluR1/NR2D: (IC50 GluR1)/(IC50 NR2D) (NR1/NR2D): >19

Compound: Cc1nc2ccc(I)cc2c(=O)n1-c1ccc(C(=O)O)cc1 [Compound 78, 4-(6-Iodo-2-methyl-4-oxoquinazolin-3(4H)-yl)benzoic acid]
- inhibitory activity (NR1/NR2D; concentrations up to 100 μM): total loss of inhibitory activity

Compound: Cc1ccc2nc(CCc3ccccc3)n(-c3ccc(C(=O)O)cc3)c(=O)c2c1 [Compound 81, 4-(6-Methyl-4-oxo-2-phenethylquinazolin-3(4H)-yl)benzoic acid]
- potency reduction on saturating the styryl linker (81 vs 80) (NR1/NR2D): 10 fold

Compound: O=C(O)c1ccc(-n2c(/C=C/c3ccc4ccccc4c3)nc3ccccc3c2=O)cc1 [Compound 82]
- GluR1/NR2D: (IC50 GluR1)/(IC50 NR2D) (NR1/NR2D): >50

Compound: O=C(O)c1ccc(-n2c(/C=C/c3ccc4c(c3)OCCO4)nc3ccccc3c2=O)cc1 [Compound 86]
- GluR1/NR2D: (IC50 GluR1)/(IC50 NR2D) (NR1/NR2D): >18
- NR2A/NR2D: (IC50 NR2A)/(IC50 NR2D) (NR1/NR2D): >18

Compound: COc1cccc(-n2c(/C=C/c3cccnc3)nc3ccc(I)cc3c2=O)c1 [Compound 90]
- IC50 (NR1/NR2D): 200 µM

Compound: (E)-4-(6,7-dimethoxy-2-(3-nitrostyryl)-4-oxoquinazolin-3(4H)-yl)benzoic acid [Compound 63]
- GluR1/NR2D: (IC50 GluR1)/(IC50 NR2D) (NR1/NR2D): 7
